Reference: the supplement of paper PMC10307832

Key:
Assay in all cases: relative viability (nuclei count vs DMSO), 5 days (fraction); higher = more cells survive
[1] = compound: CC1(C)CCC(CN2CCN(c3ccc(C(=O)NS(=O)(=O)c4ccc(NCC5CCOCC5)c([N+](=O)[O-])c4)c(Oc4cnc5[nH]ccc5c4)c3)CC2)=C(c2ccc(Cl)cc2)C1 [Venetoclax] + CS(=O)(=O)CCNCc1ccc(-c2ccc3ncnc(Nc4ccc(OCc5cccc(F)c5)c(Cl)c4)c3c2)o1 [Lapatinib] (partner 2 µM)
Procedure, shortened: (§1)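 The day after seeding in 1536-well plates, lung cancer cell lines were treated by pin tool with a single drug, or with a fixed anchor-drug dose together with five library-drug doses (not always all listed) in √10 steps. After 5 days, a combined fix-and-stain solution (final 0.05% Triton X-100, 1% formaldehyde, 1 ug/ml Hoechst) was added. Nuclei counted on 4× images gave relative viability as treated counts over vehicle counts, reported as the median of duplicate plates.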

[2] = compound: CC1(C)CCC(CN2CCN(c3ccc(C(=O)NS(=O)(=O)c4ccc(NCC5CCOCC5)c([N+](=O)[O-])c4)c(Oc4cnc5[nH]ccc5c4)c3)CC2)=C(c2ccc(Cl)cc2)C1 [Venetoclax] + CC(C)C[C@H](NC(=O)[C@H](Cc1ccccc1)NC(=O)c1cnccn1)B(O)O [Bortezomib] (partner 0.002 µM)
Procedure, shortened: as §1

[3] = compound: CC1(C)CCC(CN2CCN(c3ccc(C(=O)NS(=O)(=O)c4ccc(NCC5CCOCC5)c([N+](=O)[O-])c4)c(Oc4cnc5[nH]ccc5c4)c3)CC2)=C(c2ccc(Cl)cc2)C1 [Venetoclax] + O=C(c1cc(Cc2n[nH]c(=O)c3ccccc23)ccc1F)N1CCN(C(=O)C2CC2)CC1 [Olaparib] (partner 8 µM)
Procedure, shortened: as §1

[4] = compound: CC1(C)CCC(CN2CCN(c3ccc(C(=O)NS(=O)(=O)c4ccc(NCC5CCOCC5)c([N+](=O)[O-])c4)c(Oc4cnc5[nH]ccc5c4)c3)CC2)=C(c2ccc(Cl)cc2)C1 [Venetoclax] + Cc1cc(Nc2cc(N3CCN(C)CC3)nc(Sc3ccc(NC(=O)C4CC4)cc3)n2)n[nH]1 [Tozasertib] (partner 0.1 µM)
Procedure, shortened: as §1

Cell Line | relative viability ([1]; first compound 0.01 µM) | relative viability ([1]; first compound 0.03162 µM) | relative viability ([1]; first compound 0.1 µM) | relative viability ([1]; first compound 0.3162 µM) | relative viability ([1]; first compound 1 µM) | relative viability ([2]; first compound 0.01 µM) | relative viability ([2]; first compound 0.03162 µM) | relative viability ([2]; first compound 0.1 µM) | relative viability ([2]; first compound 0.3162 µM) | relative viability ([2]; first compound 1 µM) | relative viability ([3]; first compound 0.01 µM) | relative viability ([3]; first compound 0.03162 µM) | relative viability ([3]; first compound 0.1 µM) | relative viability ([3]; first compound 0.3162 µM) | relative viability ([3]; first compound 1 µM) | relative viability ([4]; first compound 0.01 µM) | relative viability ([4]; first compound 0.03162 µM) | relative viability ([4]; first compound 0.1 µM) | relative viability ([4]; first compound 0.3162 µM) | relative viability ([4]; first compound 1 µM)
CAL-12T | 0.584 | 0.74 | 0.577 | 0.61 | 0.679 | 0.976 | 1.14 | 0.954 | 0.901 | 0.877 | 0.675 | 0.715 | 0.732 | 0.709 | 0.634 | 0.302 | 0.346 | 0.28 | 0.222 | 0.19
SW 1573 | 1.15 | 0.979 | 0.935 | 1.08 | 0.966 | 0.983 | 1.06 | 1.02 | 1.18 | 0.997 | 0.581 | 0.516 | 0.479 | 0.473 | 0.399 | 0.217 | 0.206 | 0.207 | 0.137 | 0.171
NCI-H1666 | 0.536 | 0.664 | 0.519 | 0.624 | 0.515 | 0.773 | 0.931 | 0.676 | 0.706 | 0.593 | 0.77 | 0.741 | 0.711 | 0.759 | 0.62 | 0.706 | 0.589 | 0.623 | 0.622 | 0.587
BEN | 0.745 | 0.781 | 0.735 | 0.626 | 0.613 | 0.61 | 1.06 | 0.868 | 0.837 | 0.749 | 1.07 | 1.21 | 0.97 | 1.1 | 1.02 | 0.426 | 0.476 | 0.373 | 0.476 | 0.38
NCI-H1299 | 0.993 | 0.96 | 0.976 | 0.959 | 0.909 | 1.05 | 1.02 | 0.979 | 0.999 | 0.98 | 0.975 | 0.991 | 1.01 | 0.927 | 0.943 | – | – | – | – | –
NCI-H2170 | 0.255 | 0.29 | 0.255 | 0.254 | 0.268 | – | – | – | – | – | 0.57 | 0.639 | 0.573 | 0.615 | 0.591 | 0.723 | 0.68 | 0.592 | 0.646 | 0.632
EBC-1 | 0.213 | 0.187 | 0.234 | 0.206 | 0.224 | 0.409 | 0.604 | 0.609 | 0.511 | 0.481 | 0.636 | 0.77 | 0.662 | 0.647 | 0.662 | – | – | – | – | –
NCI-H2342 | – | – | – | – | – | – | – | – | – | – | 0.462 | 0.554 | 0.543 | 0.401 | 0.475 | 0.59 | 0.617 | 0.375 | 0.568 | 0.656
ChaGo-K-1 | – | – | – | – | – | 1.08 | 1.11 | – | 1.08 | 0.926 | 0.341 | 0.48 | 0.437 | 0.5 | 0.439 | 0.236 | 0.218 | 0.224 | 0.208 | 0.227
LK-2 | 0.973 | 0.99 | 0.846 | 0.894 | 0.767 | – | – | – | – | – | 0.934 | 0.98 | 0.848 | 0.619 | 0.716 | 0.154 | 0.18 | 0.19 | 0.18 | 0.192
NCI-H1944 | 0.859 | 0.654 | 0.802 | 0.853 | 0.912 | – | – | – | – | – | 0.627 | 0.394 | 0.392 | 0.418 | 0.406 | 0.267 | 0.246 | 0.238 | 0.273 | 0.228
NCI-H1793 | 0.677 | 0.758 | 0.443 | 0.613 | 0.551 | – | – | – | – | – | 0.867 | 0.892 | 0.883 | 0.806 | 0.712 | 0.227 | 0.347 | 0.321 | 0.297 | 0.237
A549 | 1.05 | 0.988 | 1.04 | 0.998 | 0.898 | – | – | – | – | – | 0.302 | 0.376 | 0.311 | 0.35 | 0.339 | – | – | – | – | –
NCI-H358 | 0.502 | 0.452 | 0.412 | 0.499 | 0.468 | – | – | – | – | – | 0.567 | 0.651 | 0.575 | 0.773 | 0.579 | 0.117 | 0.0943 | 0.115 | 0.0994 | 0.102
NCI-H1395 | 1.37 | 1.09 | 0.958 | 1.09 | 0.964 | – | – | – | – | – | 0.451 | 0.484 | 0.447 | 0.473 | 0.427 | 0.851 | 0.85 | 0.705 | 0.782 | 0.762
SW 900 | – | – | – | – | – | – | – | – | – | – | 0.76 | 0.866 | 0.841 | 0.845 | 0.819 | 0.401 | 0.55 | 0.476 | 0.65 | 0.386
NCI-H441 | – | – | – | – | – | 0.651 | 0.91 | 0.532 | 0.451 | 0.476 | 0.627 | 0.646 | 0.568 | 0.611 | 0.582 | 0.587 | 0.603 | 0.86 | 0.676 | 0.507
NCI-H1703 | 0.992 | 1.11 | 0.895 | 1.01 | 1.03 | 0.306 | 0.313 | 0.21 | 0.397 | 0.374 | 0.35 | 0.328 | 0.333 | 0.44 | 0.476 | – | – | – | – | –
NCI-H1563 | 0.691 | 1.08 | 1.14 | 1.28 | 0.953 | 0.792 | 0.896 | 0.827 | 0.944 | 0.78 | – | – | – | – | – | – | – | – | – | –
IA-LM | 0.849 | 0.723 | 0.646 | 0.897 | 0.552 | 0.745 | 0.701 | 0.959 | 0.698 | 0.823 | 0.795 | 0.819 | 0.7 | 0.795 | 0.67 | – | – | – | – | –
NCI-H1648 | – | – | – | – | – | – | – | – | – | – | – | 0.766 | 0.698 | 0.841 | 0.713 | 0.235 | 0.574 | 0.54 | 0.471 | 0.415
